The text below walks through data of publication PMC12239085, “Silver(I) Ions Bridging Oxadiazole-2-thione Derivatives with Mitochondriotropic Agents: A Promising Strategy for Potent Anticancer Chemotherapy” (Inorganic Chemistry, 2025).

Data set [1] concerns MCF-7 human breast adenocarcinoma cells (hormone-dependent). The data set can be described thus: SRB antiproliferative assay, MCF-7. As to conditions: for IC50: Homo sapiens, MCF7, SRB assay, 48 h incubation; for (%) cells viability: MCF-7 cells, ligands with IC50 higher than 30 μM. The class given is cell-based. As to the method:
(§1) Stock solutions of compounds 1a–5a and 1–5 (0.01 M) in DMSO were freshly prepared and subsequently diluted with cell culture media to appropriate concentrations for various biological experiments. These included the assessment of cell viability using the SRB assay, micronucleus testing, cell morphology studies, cell cycle arrest, AO/EB staining, and mitochondrial membrane permeabilization tests. For CT-DNA binding studies, experiments were conducted in DMSO/buffer solutions. All biological experiments were performed in triplicate or more.
(§2) Stock solutions of 1a–5a and 1–5 (0.01 M) were dissolved in DMSO and subsequently diluted with cell culture medium to the desired concentrations (0.5–30 μM). MCF-7, MDA MB-231, and MRC-5 cells were plated in 96-well flat-bottom microplates at various densities: 6000, 8000, and 2000 cells per well, respectively. The cells were incubated for 24 h at 37 °C and then exposed to 1a–5a and 1–5 for 48 h. ,–
(§3) Cytotoxicity was evaluated using the SRB colorimetric assay at λ = 568 nm, with cell survival percentages calculated relative to the untreated control cells. Detailed information on the SRB assay procedure can be found in the previous publication. ,–
(The SRB assay estimates cell density from bound dye.)

In data set [2] the test system is MDA-MB-231 human breast adenocarcinoma cells (hormone-independent). Put plainly: SRB antiproliferative assay, MDA-MB-231. The class given is cell-based. As to conditions: Homo sapiens, MDA-MB-231, 48 h incubation. As for the experimental part: as §1, §2, §3
Data set [3] relates to normal human fetal lung fibroblast (MRC-5) cells. The data set can be described thus: SRB toxicity assay, MRC-5. As to conditions: Homo sapiens, MRC5, 48 h incubation. The data set is classed as cell-based. As to the method: as §1, §2, §3
Data set [4] deals with MCF-7 human breast adenocarcinoma cells (hormone-dependent). The conditions noted are these: 48 h incubation; ref not 'this study', ref number not given; cited from earlier work.
Data set [5] has as its system MDA-MB-231 human breast adenocarcinoma cells (hormone-independent). Details: method as in column not 'this study', ref number not given. The conditions noted are these: 48 h incubation; ref not 'this study', ref number not given; cited from earlier work.
Data set [6] has as its system normal human fetal lung fibroblast (MRC-5) cells. Details: method as in column not 'this study', ref number not given. As to conditions: 48 h incubation; ref not 'this study', ref number not given; cited from earlier work.
The test system of data set [7] is nontumorigenic human breast epithelial cell line (MCF-10A). Details: method as in column not 'this study', ref number not given. The conditions noted are these: 48 h incubation; ref not 'this study', ref number not given; cited from earlier work.
For the next data set, the system named is MRC-5 cells. On the set-up: method as in number not given. The conditions noted are these: cited from earlier work.
For data set [8], the system named is MCF-7 cells. Details: method as in number not given. As to conditions: cisplatin comparison; ref number not given; cited from earlier work.
Data set [9] has as its system MCF-7 cells. On the set-up: method as in number not given. The conditions noted are these: cisplatin comparison; ref number not given; cited from earlier work. The source holds these as a separate data set.
Data set [10] relates to MCF-7 cells. Details: method as in number not given. As to conditions: cisplatin comparison, ref number not given; cited from earlier work.
The target in a further data set is T1, lipoxygenase (LOX) (Glycine max, UniProt P08170).
T1 sequence (P08170 1-839): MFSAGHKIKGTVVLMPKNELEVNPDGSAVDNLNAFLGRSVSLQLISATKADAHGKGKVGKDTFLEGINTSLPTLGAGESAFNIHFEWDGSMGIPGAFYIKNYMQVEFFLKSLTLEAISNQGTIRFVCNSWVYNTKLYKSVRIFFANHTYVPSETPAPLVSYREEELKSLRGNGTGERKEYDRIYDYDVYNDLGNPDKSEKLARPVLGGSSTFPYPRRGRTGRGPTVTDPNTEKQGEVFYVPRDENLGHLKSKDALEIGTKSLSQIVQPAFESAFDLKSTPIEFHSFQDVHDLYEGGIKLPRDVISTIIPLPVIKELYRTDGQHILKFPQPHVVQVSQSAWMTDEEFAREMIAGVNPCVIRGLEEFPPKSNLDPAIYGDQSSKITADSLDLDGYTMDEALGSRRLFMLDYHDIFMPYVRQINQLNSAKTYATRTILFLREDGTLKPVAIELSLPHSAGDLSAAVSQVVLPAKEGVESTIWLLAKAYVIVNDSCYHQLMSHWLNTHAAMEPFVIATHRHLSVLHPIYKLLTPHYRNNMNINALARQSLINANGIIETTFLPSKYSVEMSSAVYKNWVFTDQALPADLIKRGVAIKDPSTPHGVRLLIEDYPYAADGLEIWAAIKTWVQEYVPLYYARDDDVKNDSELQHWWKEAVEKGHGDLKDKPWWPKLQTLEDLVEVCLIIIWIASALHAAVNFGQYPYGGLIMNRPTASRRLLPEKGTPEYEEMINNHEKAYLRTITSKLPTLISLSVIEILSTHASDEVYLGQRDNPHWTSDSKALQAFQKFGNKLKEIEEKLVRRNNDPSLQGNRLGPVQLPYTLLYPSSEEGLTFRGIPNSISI
The conditions noted are these: cisplatin comparison; ref number not given; read-out: IC50 against LOX; cited from earlier work.

Each structure is given as a SMILES string. Several values for one entry are separate records, joined by “and”; a condition that tells them apart may be missing. Identical values can stand only once. Like-named read-outs stand apart in the source and are kept apart here.

On to `S=c1[nH]nc(-c2ccccc2)o1` [1a], for which the IC50 in data set [1], in data set [2] and in data set [3] was > 30 µM each time. The “(%) cells viability” value in data set [1] is given as 84.7%.
`Fc1ccccc1-c1nnc(S)o1` [2a]: the half-inhibitory concentration (IC50) in data set [1], in data set [2] and in data set [3] was > 30 µM each time. Further, the “(%) cells viability” value in [1] amounted to 95.7%.
`Fc1ccc(-c2nnc(S)o2)cc1` [3a]: the IC50 in data set [1], in [2] and in [3] was > 30 µM throughout. Besides, in data set [1], the “(%) cells viability” value came to 90.7%.
With `Sc1nnc(-c2ccccc2Cl)o1` [4a], the concentration for half-maximal inhibition (IC50) in data set [1], in data set [2] and in data set [3] was > 30 µM in each case. For the same compound, the “(%) cells viability” value in data set [1] was determined as 80.3%.
As to `Sc1nnc(-c2cccc(Cl)c2)o1` [5a], the half-maximal inhibitory concentration (IC50) in data set [1], in data set [2] and in data set [3] was > 30 µM in each case. In addition, in data set [1], the “(%) cells viability” value was found to be 90.1%.
As to `c1ccc(P(c2ccccc2)c2ccccc2)cc1` [TPP, triphenylphosphine], the IC50 was 28.9 ± 1.4 µM in data set [4], > 30 µM in data set [5] and > 30 µM in data set [6].
Take `N.N.[Cl][Pt][Cl]` [cisplatin]: the IC50 is 5.5 ± 0.4 µM in data set [4]; 26.7 ± 1.1 µM in [5]; 1.1 ± 0.2 µM in data set [6]; 11 ± 3 µM in data set [7]; 65.9 µM on lipoxygenase (LOX). In addition, the “Percentage of MN” value in the data set with MRC-5 cells (control = 0.8, ref number not given) is recorded as 1.6 (control = 0.8) %. In addition, in the data set with MRC-5 cells (ref number not given), the “Relative ratio of MN toward its control” value is reported as 2.0. For the same compound, in the data set on MCF-7 cells [8], the “relative rate of apoptotic MCF-7 cells” value is 5.88 and 5.9. Moreover, in the data set with MCF-7 cells [9], the “Relative rate of MCF-7 cells in sub-G1 phase” value was 2.9. Moreover, the “fluorescence quenching (MMP)” value with MCF-7 cells [10] was 54.9%.

The IC50 is the concentration at which inhibition is half-maximal.
